Measurements: ChEMBL document CHEMBL1138771, “Novel arylsulfoanilide-oxindole hybrid as an anticancer agent that inhibits translation initiation” (J Med Chem, 2004)

Experiments:
[1] = test system: A549; assay: Concentration required for growth inhibition of human lung cancer cells (A549); format: functional
[2] = test system: NIH 3T3 (Mus musculus); assay: Ratio of the peak heights normalized to the peak of clotrimazole as a reference was a measure of intracellular [Ca2+] stores depletion in NIH 3T3 cell
[3] = test system: DU-145; assay: Concentration required for growth inhibition of human prostate cancer cells (DU145) was determined; format: functional, cell-based

Row | SMILES | GI50 [1] [µM] | IC50 [3] [µM] | Ratio [2]
1 | Cc1ccc(NS(=O)(=O)c2ccc(-c3ccccc3)cc2)cc1O | 9 |  | 0.72
2 | Cc1ccc(NS(=O)(=O)c2ccc(C(C)(C)C)cc2)cc1 | 11 |  | 1.11
3 | Cc1ccc(NS(=O)(=O)c2ccc(Br)cc2)cc1O | 20 |  | 0.27
4 | CC(C)(C)c1ccc(O)c(C2(c3ccccc3)C(=O)Nc3ccccc32)c1 (stereo unspecified) | 3 | 2.49 | 1.1
5 | COc1ccc(S(=O)(=O)Nc2ccc(C)c(O)c2)cc1 | 51 |  | 0.12
6 | Cc1cc(C2(c3ccccc3)C(=O)Nc3ccccc32)c(NS(=O)(=O)c2ccc(C(C)(C)C)cc2)cc1O (stereo unspecified) | 0.8 | 1.08 | 1.06
7 | O=S(=O)(Nc1ccccc1)c1ccc(I)cc1 | 23 |  | 0.87
8 | CC(C)(C)c1ccc(S(=O)(=O)Nc2ccccc2)cc1 | 16 |  | 1.44
9 | Cc1cc(O)c(NS(=O)(=O)c2ccc(C(C)(C)C)cc2)cc1C1(c2ccccc2)C(=O)Nc2ccccc21 (stereo unspecified) | > 20 |  | 0.44
10 | Cc1ccccc1NS(=O)(=O)c1ccc(C(C)(C)C)cc1 | > 80 |  | 0.49
11 | O=S(=O)(Nc1ccccc1)c1ccc(-c2ccccc2)cc1 | 17 |  | 1.37
12 | O=C1Nc2ccccc2C1(c1ccccc1)c1ccccc1 | 13 | 12.5 | 0.87
13 | CC(C)(C)c1ccc(S(=O)(=O)Nc2ccccc2O)cc1 | 13 |  | 1.17

Now from value to molecule, other results behind:

Row | GI50 [1] [µM] | IC50 [3] [µM] | SMILES | Ratio [2]
14 | 15 |  | Cc1ccc(NS(=O)(=O)c2ccc(I)cc2)cc1O | 0.45
15 | 30 |  | CN(c1ccccc1)S(=O)(=O)c1ccc(C(C)(C)C)cc1 | 0.14
16 | 14 |  | CC(C)(C)c1ccc(S(=O)(=O)Nc2ccc(O)cc2)cc1 | 0.33
17 | 80 |  | Cc1cccc(NS(=O)(=O)c2ccc(C(C)(C)C)cc2)c1 | 0.95
18 | 7 |  | Cc1ccc(NS(=O)(=O)c2ccc(Oc3ccccc3)cc2)cc1O | 1.1
19 | 4 |  | Cc1cc(C2(c3ccccc3)C(=O)Nc3ccccc32)c(NS(=O)(=O)c2ccc(-c3ccccc3)cc2)cc1O (stereo unspecified) | 0
20 | 29 |  | Cc1ccc(NS(=O)(=O)c2ccc([N+](=O)[O-])cc2)cc1O | 0.14
21 | 5 |  | Cc1cc(C2(c3ccccc3)C(=O)Nc3ccccc32)c(NS(=O)(=O)c2ccc(Oc3ccccc3)cc2)cc1O (stereo unspecified) | 0
22 | 12 |  | CC(C)(C)c1ccc(S(=O)(=O)Nc2cccc(O)c2)cc1 | 0.55
23 | 6 |  | Cc1ccc(NS(=O)(=O)c2ccc(C(C)(C)C)cc2)cc1O | 1.12
24 | > 80 |  | O=S(=O)(Nc1ccccc1)c1ccccc1 [PHENYL(PHENYLSULFONYL)AMINE] | 0
25 | 8 |  | Cc1ccc(NS(=O)(=O)c2ccc(C(C)(C)C)cc2)c(O)c1 | 1.44
26 | 52 |  | O=[N+]([O-])c1ccc(S(=O)(=O)Nc2ccccc2)cc1 | 0.13
27 | 30 |  | O=S(=O)(Nc1ccccc1)c1ccc(Br)cc1 | 0.38
28 | 16 |  | COc1ccc(S(=O)(=O)Nc2ccccc2)cc1 | 0.63
29 | 48 |  | CC(=O)Nc1ccc(S(=O)(=O)Nc2ccc(C)c(O)c2)cc1 | 0.19
